Assay results from patent EP0947511A1, “Derivatives of phenoxy acetic acid and of phenoxymethyl tetrazole having antitumor activity” (F. HOFFMANN-LA ROCHE AG, priority 1998, dated 1999).

Tests used:
[1] = tested on: MCF-7ADR; experiment: Radiosensitizing activity of MDM2 antagonistic compounds, MCF-7ADR cells; assay type: cell-based, human; conditions: MCF-7 ADR cells (mutant p53, high GST content)
Experimental: Biologic assay for radiosensitizing activity of MDM2 antagonistic compounds: Human tumor cell lines containing wild-type p53 and low levels of GST, such as MCF7 (breast carcinoma) or mutant p53 and a high GST content, such as MCF7 ADR (adriamycin-resistant breast carcinoma) are cultivated in RPMI medium, supplemented with 10% fetal calf serum to a semi-confluent state.
In order to determine the radiosensitizing activity of selected compounds on these cells a minimal toxic dose was determined as 2Gy with a ^137Cesium source at room temperature. Following irradiation of monolayer cells in exponential growth phase with 2 Gy, cells were incubated with various concentrations of the selected compounds for 2-6 h. Cells were trypsinized and seeded in appropriate dilutions into 6 well plates. Surviving cells were trypsinized after 12-13 days and cell number was determined by staining with trypane blue for living/dead cells. The protocol was established according to Khil et al., 1996, Int. J. Rad. Oncol. Biol. Phys. 34, 375-380.

[2] = molecular target: HT29 cytosolic GST (Homo sapiens, UniProt P09211); experiment: Spectrophotometric GST activity analysis; assay type: biochemical; conditions: inhibition of GST activity in HT29 cells
Experimental: GST catalyzes the conjugation of CDNB with glutathione and results in a CDNB-glutathione product with a strong molar absorption at 340 nm. The change of absorption is monitored for 5 min.
1 x 10^6 cells are collected and washed once with ice-cold phosphate-buffered saline at 1000 rpm for 10 min at 4°C. Cell pellets are resuspended in 200 µl ice-cold phosphate-buffered saline, and are sonicated for 2 min on ice. The sonicate is then centrifuged at 11750 g, 4°C for 15 min in an Eppendorf Centrifuge, and the supernatant is assayed for GST activity.

Chain of HT29 cytosolic GST (P09211 2-210): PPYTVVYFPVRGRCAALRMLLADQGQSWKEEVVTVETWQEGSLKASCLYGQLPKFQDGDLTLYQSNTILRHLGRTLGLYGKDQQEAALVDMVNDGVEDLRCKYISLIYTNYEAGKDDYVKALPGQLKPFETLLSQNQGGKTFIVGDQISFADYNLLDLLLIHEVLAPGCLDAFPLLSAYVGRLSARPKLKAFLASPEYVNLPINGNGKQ

For `C=C(CC)C(=O)c1ccc(OCC(=O)O)c(Cl)c1Cl` [ethacrynic acid, reference compound], the radiosensitization [1] was “does not mediate any radiosensitization”.

With `O=C(O)COc1ccc(C(=O)/C=C/c2ccc(Cl)c(Cl)c2)cc1` [LSM 83177, 3,4-dichloro-4'-(carboxymethoxy)chalcone] the radiosensitization [1] was “leads to a radiosensitization in MCF-7 ADR cells” and the IC-50 [2] was 7,7 µg/ml.
